Laboratory results as given in PubChem BioAssay AID248 (DTP/NCI, 2004).
Several values for one entry are separate records, joined by “and”; a condition that tells them apart may be missing. Identical values can stand only once. Toxic doses and inconclusive results are not listed. No stated cut-off is given here; in the data, active means T/C of 150% or more; inactive means T/C below 125%.

System: L1210 leukemia ip in BDF1 mice, survival T/C
Test: NCI In Vivo Anticancer Drug Screen. Data for tumor model L1210 Leukemia (intraperitoneal) in B6D2F1 (BDF1) mice
Conditions: endpoint: mean survival time, higher = longer survival
Procedure, shortened: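 Survival endpoint. Drug-treated group vs vehicle group, expressed as T divided by C. Tumor passaged by transplantation.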

[1] = dose: 400.0 mg/kg/injection, schedule: Q04DX002 (ip), vehicle: saline with Tween-80
[2] = dose: 50.0 mg/kg/injection, schedule: Q01DX009 (ip), vehicle: saline with Tween-80
[3] = dose: 100.0 mg/kg/injection, schedule: Q01DX009 (ip), vehicle: saline with Tween-80
[4] = dose: 100.0 mg/kg/injection, schedule: Q04DX003 (ip), vehicle: saline with Tween-80
[5] = dose: 200.0 mg/kg/injection, schedule: Q01DX009 (ip), vehicle: saline with Tween-80
[6] = dose: 200.0 mg/kg/injection, schedule: Q04DX003 (ip), vehicle: saline with Tween-80
[7] = dose: 100.0 mg/kg/injection, schedule: Q04DX003 (ip), vehicle: Klucel (hydroxypropylcellulose) (HPC)
[8] = dose: 200.0 mg/kg/injection, schedule: Q04DX003 (ip), vehicle: Klucel (hydroxypropylcellulose) (HPC)
[9] = dose: 100.0 mg/kg/injection, schedule: Q04DX002 (ip), vehicle: Klucel (hydroxypropylcellulose) (HPC)
[10] = dose: 200.0 mg/kg/injection, schedule: Q04DX002 (ip), vehicle: Klucel (hydroxypropylcellulose) (HPC)
[11] = dose: 400.0 mg/kg/injection, schedule: Q04DX002 (ip), vehicle: Klucel (hydroxypropylcellulose) (HPC)
[12] = dose: 100.0 mg/kg/injection, schedule: Q01DX009 (ip), vehicle: Klucel (hydroxypropylcellulose) (HPC)
[13] = dose: 200.0 mg/kg/injection, schedule: Q01DX009 (ip), vehicle: Klucel (hydroxypropylcellulose) (HPC)
[14] = dose: 400.0 mg/kg/injection, schedule: Q01DX009 (ip), vehicle: Klucel (hydroxypropylcellulose) (HPC)
[15] = dose: 400.0 mg/kg/injection, schedule: Q04DX003 (ip), vehicle: Klucel (hydroxypropylcellulose) (HPC)
[16] = dose: 100.0 mg/kg/injection, schedule: Q04DX003 (ip), vehicle: saline
[17] = dose: 200.0 mg/kg/injection, schedule: Q04DX003 (ip), vehicle: saline
[18] = dose: 400.0 mg/kg/injection, schedule: Q04DX003 (ip), vehicle: saline

Measured: T/C

N#CC(c1ccccc1)c1cccnc1 (centres undefined)
inactive: dose: 100.0 mg/kg/injection, schedule: Q01DX001 (ip), vehicle: carboxymethylcellulose (CMC) 94 % of control | dose: 200.0 mg/kg/injection, schedule: Q01DX001 (ip), vehicle: carboxymethylcellulose (CMC) 92 % of control | dose: 400.0 mg/kg/injection, schedule: Q01DX001 (ip), vehicle: carboxymethylcellulose (CMC) 89 % of control

Fc1cc(F)c(F)c(Nc2ccccc2)c1F
inactive: dose: 25.6 mg/kg/injection, schedule: Q04DX002 (ip), vehicle: saline with Tween-80 113 % of control | dose: 64.0 mg/kg/injection, schedule: Q04DX002 (ip), vehicle: saline with Tween-80 89 % of control | dose: 160.0 mg/kg/injection, schedule: Q04DX002 (ip), vehicle: saline with Tween-80 95 % of control | [1] 106 % of control

N#Cc1ncc(-c2ccccc2)nc1Cl
inactive: [2] 94 % of control | [3] 96 % of control | [4] 97 % of control | [5] 92 % of control | [6] 95 % of control

Cc1ccc(S(=O)(=O)OCC2CCC(COS(=O)(=O)c3ccc(C)cc3)O2)cc1 (centres undefined)
inactive: [7] 103 % of control | [8] 100 % of control

CCOC(=O)c1ccc(N=Cc2cnc(N)nc2N)cc1
inactive: dose: 100.0 mg/kg/injection, schedule: Q01DX001 (ip), vehicle: other 93 % of control | dose: 200.0 mg/kg/injection, schedule: Q01DX001 (ip), vehicle: other 87 % of control | dose: 400.0 mg/kg/injection, schedule: Q01DX001 (ip), vehicle: other 93 % of control

CCCCCCCCCCCn1cnc2c(=S)nc[nH]c21
inactive: dose: 12.5 mg/kg/injection, schedule: Q01DX005 (ip), vehicle: other 103 % of control | dose: 25.0 mg/kg/injection, schedule: Q01DX005 (ip), vehicle: other 97 % of control | dose: 50.0 mg/kg/injection, schedule: Q01DX005 (ip), vehicle: other 98 % of control | dose: 100.0 mg/kg/injection, schedule: Q01DX005 (ip), vehicle: other 98 % of control | dose: 200.0 mg/kg/injection, schedule: Q01DX005 (ip), vehicle: other 97 % of control

Clc1ccc(N=Nc2ccccn2)cc1
inactive: [9] 101 % of control | [10] 96 % of control | [11] 93 % of control

O=C(/C=C/c1ccccc1Cl)c1ccc(F)cc1
inactive: dose: 100.0 mg/kg/injection, schedule: Q04DX002 (ip), vehicle: saline with Tween-80 94 % of control | dose: 200.0 mg/kg/injection, schedule: Q04DX002 (ip), vehicle: saline with Tween-80 94 % of control | [1] 97 % of control

Cc1cc(=O)oc2cc(OC(=O)Nc3ccc(Cl)cc3C(F)(F)F)ccc12
inactive: [3] 97 % of control | [5] 97 % of control | dose: 400.0 mg/kg/injection, schedule: Q01DX009 (ip), vehicle: saline with Tween-80 92 % of control

CCC(C)(CC=C(C)C)c1ccncc1 (centres undefined)
inactive: dose: 100.0 mg/kg/injection, schedule: Q01DX001 (ip), vehicle: saline 98 % of control

Cc1ccnc(NC(=O)Nc2cc(F)ccc2F)c1
inactive: [12] 92 % of control and 103 % of control | [9] 101 % of control and 90 % of control | [7] 97 % of control | [13] 92 % of control and 89 % of control | [10] 90 % of control | [8] 93 % of control | [14] 94 % of control and 98 % of control | [11] 95 % of control and 90 % of control | [15] 87 % of control

CCCCCCCCCCCC(CCCCCCCC)C1CCCCC1 (centres undefined)
inactive: dose: 100.0 mg/kg/injection, schedule: Q01DX001 (ip), vehicle: saline + alcohol 101 % of control | dose: 200.0 mg/kg/injection, schedule: Q01DX001 (ip), vehicle: saline + alcohol 103 % of control | dose: 400.0 mg/kg/injection, schedule: Q01DX001 (ip), vehicle: saline + alcohol 108 % of control

c1ccc(COB(OCc2ccccc2)OCc2ccccc2)cc1
inactive: dose: 100.0 mg/kg/injection, schedule: Q01DX009 (ip), vehicle: saline 110 % of control | [16] 105 % of control | dose: 200.0 mg/kg/injection, schedule: Q01DX009 (ip), vehicle: saline 104 % of control | [17] 102 % of control | dose: 400.0 mg/kg/injection, schedule: Q01DX009 (ip), vehicle: saline 96 % of control | [18] 96 % of control

Cc1cccc(CCl)c1
inactive: dose: 37.5 mg/kg/injection, schedule: Q01DX009 (ip), vehicle: saline sonified 106 % of control | dose: 75.0 mg/kg/injection, schedule: Q01DX009 (ip), vehicle: saline sonified 95 % of control | [16] 102 % of control | dose: 150.0 mg/kg/injection, schedule: Q01DX009 (ip), vehicle: saline sonified 98 % of control | [17] 100 % of control | [18] 93 % of control

CCCCCCCCCCCCNC(=O)Nc1ccc(CC)cc1
inactive: [12] 87 % of control | [7] 97 % of control | [13] 94 % of control | [8] 96 % of control | [14] 93 % of control | [15] 101 % of control

Cc1ccc2cccc([N+](=O)[O-])c2n1
inactive: dose: 12.5 mg/kg/injection, schedule: Q01DX009 (ip), vehicle: saline with Tween-80 93 % of control | dose: 25.0 mg/kg/injection, schedule: Q01DX009 (ip), vehicle: saline with Tween-80 93 % of control | dose: 25.0 mg/kg/injection, schedule: Q04DX003 (ip), vehicle: saline with Tween-80 101 % of control | [2] 103 % of control | dose: 50.0 mg/kg/injection, schedule: Q04DX003 (ip), vehicle: saline with Tween-80 95 % of control | [4] 105 % of control and 106 % of control | [6] 106 % of control

CC(=O)Nc1ccc(NC(=O)Nc2ccc(C)cc2[N+](=O)[O-])cc1
inactive: [7] 92 % of control | [8] 86 % of control | [15] 94 % of control

Cc1ccccc1OP(=S)(NN)Oc1ccccc1C
inactive: [9] 93 % of control | [10] 100 % of control | [11] 100 % of control

CC1CN1P(=O)(Oc1ccccc1)N1CC1C (centres undefined)
inactive: dose: 44.0 mg/kg/injection, schedule: Q01DX Z (ip), vehicle: saline 107 % of control | dose: 67.0 mg/kg/injection, schedule: Q01DX Z (ip), vehicle: saline 107 % of control | dose: 100.0 mg/kg/injection, schedule: Q01DX Z (ip), vehicle: saline 102 % of control | dose: 150.0 mg/kg/injection, schedule: Q01DX Z (ip), vehicle: saline 122 % of control

O=C1CCN(Cc2ccco2)C(=S)N1
inactive: dose: 25.0 mg/kg/injection, schedule: Q01DX Z (ip), vehicle: methylcellulose (MC) 101 % of control | dose: 50.0 mg/kg/injection, schedule: Q01DX Z (ip), vehicle: methylcellulose (MC) 97 % of control

Cc1ccc(S(=O)(=O)F)cc1C(=O)Nc1ccc(OCCCc2c(N)nc(N)nc2N)cc1
inactive: dose: 37.5 mg/kg/injection, schedule: Q01DX001 (ip), vehicle: Klucel (hydroxypropylcellulose) (HPC) 96 % of control | dose: 75.0 mg/kg/injection, schedule: Q01DX001 (ip), vehicle: Klucel (hydroxypropylcellulose) (HPC) 94 % of control | dose: 150.0 mg/kg/injection, schedule: Q01DX001 (ip), vehicle: Klucel (hydroxypropylcellulose) (HPC) 98 % of control
